Tested on: adult patients with essential tremor
Assay: Example 16: accelerometer-based (Kinesia ONE) TETRAS upper limb score
Assay type: in vivo, human
Text: Accelerometer (Kinesia ONE) TETRAS assessments were generally consistent with those conducted at the clinic. Accelerometer upper limb score values are summarized for Part A, the open-label titration phase of Part B, and the randomized withdrawal phase of Part B in Table 37, Table 38, and Table 39, respectively

[1] = Day 1, Post - dose, Part B, Formula (I) arm (N = 4), baseline upper limb score ≥10
[2] = Day 7, Part B, Formula (I) arm (N = 4), baseline upper limb score ≥10
[3] = Day 21, Part B, Formula (I) arm (N = 4), baseline upper limb score ≥10
[4] = Day 42, Post - dose, Part B, Formula (I) arm (N = 4), baseline upper limb score ≥10
[5] = Day 42, Pre - dose, Part B, Formula (I) arm (N = 4), baseline upper limb score ≥10
[6] = Day 42 Post - dose (Randomization Baseline), Part B, Formula (I) arm (N = 4), baseline upper limb score ≥10
[7] = Day 56, Part B, Formula (I) arm (N = 4), baseline upper limb score ≥10
[8] = Day 56, Part B, baseline upper limb score ≥10
[9] = Day 70, Part B, Formula (I) arm (N = 4), baseline upper limb score ≥10
[10] = Day 70, Part B, baseline upper limb score ≥10
[11] = Part A (N = 7), Day 1, Post - dose
[12] = Part B Open-Label Titration (N = 17), Day 1, Post - dose
[13] = Part B Open-Label Titration (N = 17), Day 7
[14] = Part B Open-Label Titration (N = 17), Day 21

SMILES: CC(C)(C)NC(=O)CN1CCC(CNC(=O)c2cc(F)cc(Cl)c2)CC1 [compound of formula (I), N-((1-(2-(tert-butylamino)-2-oxoethyl)piperidin-4-yl)methyl)-3-chloro-5-fluorobenzamide]
- Accelerometer-Based Upper Limb Score, Change from Baseline, Mean (SD) [1]: −0.45 (1.476)
- Accelerometer-Based Upper Limb Score, Change from Baseline, Median [1]: −0.83
- Accelerometer-Based Upper Limb Score, Mean (SD) [1]: 10.46 (2.611)
- Accelerometer-Based Upper Limb Score, Median [1]: 11.50
- Accelerometer-Based Upper Limb Score, Percentage Change from Baseline in Tremor Amplitude, Mean (SD) [1]: −7.70 (24.390) %
- Accelerometer-Based Upper Limb Score, Percentage Change from Baseline in Tremor Amplitude, Median [1]: −14.36%
- Accelerometer-Based Upper Limb Score, Change from Baseline, Mean (SD) [2]: −1.48 (0.814)
- Accelerometer-Based Upper Limb Score, Change from Baseline, Median [2]: −1.85
- Accelerometer-Based Upper Limb Score, Mean (SD) [2]: 9.67 (3.386)
- Accelerometer-Based Upper Limb Score, Median [2]: 11.10
- Accelerometer-Based Upper Limb Score, Percentage Change from Baseline in Tremor Amplitude, Mean (SD) [2]: −24.14 (12.303) %
- Accelerometer-Based Upper Limb Score, Percentage Change from Baseline in Tremor Amplitude, Median [2]: −29.88%
- Accelerometer-Based Upper Limb Score, Change from Baseline, Mean (SD) [3]: −0.56 (1.181)
- Accelerometer-Based Upper Limb Score, Change from Baseline, Median [3]: −0.55
- Accelerometer-Based Upper Limb Score, Mean (SD) [3]: 10.35 (3.035)
- Accelerometer-Based Upper Limb Score, Median [3]: 11.48
- Accelerometer-Based Upper Limb Score, Percentage Change from Baseline in Tremor Amplitude, Mean (SD) [3]: −9.09 (19.622) %
- Accelerometer-Based Upper Limb Score, Percentage Change from Baseline in Tremor Amplitude, Median [3]: −9.68%
- Accelerometer-Based Upper Limb Score, Change from Baseline, Mean (SD) [4]: −0.46 (1.605)
- Accelerometer-Based Upper Limb Score, Change from Baseline, Median [4]: −0.23
- Accelerometer-Based Upper Limb Score, Percentage Change from Baseline in Tremor Amplitude, Mean (SD) [4]: −6.66 (25.539) %
- Accelerometer-Based Upper Limb Score, Percentage Change from Baseline in Tremor Amplitude, Median [4]: −3.87%
- Accelerometer-Based Upper Limb Score, Change from Baseline, Mean (SD) [5]: 0.02 (1.702)
- Accelerometer-Based Upper Limb Score, Change from Baseline, Median [5]: 0.05
- Accelerometer-Based Upper Limb Score, Mean (SD) [5]: 10.94 (0.884)
- Accelerometer-Based Upper Limb Score, Median [5]: 11.23
- Accelerometer-Based Upper Limb Score, Percentage Change from Baseline in Tremor Amplitude, Mean (SD) [5]: 0.39 (28.120) %
- Accelerometer-Based Upper Limb Score, Percentage Change from Baseline in Tremor Amplitude, Median [5]: 0.78%
- Accelerometer-Based Upper Limb Score, Mean (SD) [6]: 10.45 (1.616)
- Accelerometer-Based Upper Limb Score, Median [6]: 10.88
- Accelerometer-Based Upper Limb Score, Change from Baseline, Mean (SD) [7]: −0.35 (3.213)
- Accelerometer-Based Upper Limb Score, Change from Baseline, Median [7]: 0.62
- Accelerometer-Based Upper Limb Score, Change from Randomization, LS Mean (SE) [7]: 0.071 (1.3594)
- Accelerometer-Based Upper Limb Score, Change from Randomization, Mean (SD) [7]: 0.11 (1.662)
- Accelerometer-Based Upper Limb Score, Change from Randomization, Median [7]: 0.70
- Accelerometer-Based Upper Limb Score, LS Mean Percentage Change in Tremor Amplitude from Randomization [7]: 1.4%
- Accelerometer-Based Upper Limb Score, Mean (SD) [7]: 10.56 (2.093)
- Accelerometer-Based Upper Limb Score, Median [7]: 10.88
- Accelerometer-Based Upper Limb Score, Percentage Change from Baseline in Tremor Amplitude, Mean (SD) [7]: −1.64 (43.539) %
- Accelerometer-Based Upper Limb Score, Percentage Change from Baseline in Tremor Amplitude, Median [7]: 9.78%
- Accelerometer-Based Upper Limb Score, Percentage Change from Randomization in Tremor Amplitude, Mean (SD) [7]: 2.97 (26.670) %
- Accelerometer-Based Upper Limb Score, Percentage Change from Randomization in Tremor Amplitude, Median [7]: 12.37%
- Accelerometer-Based Upper Limb Score, Change from Randomization, LS Mean (SE) for Difference (Formula (I) - Placebo) [8]: −2.321 (1.8339)
- Accelerometer-Based Upper Limb Score, Change from Randomization, p-value for LS Mean Difference (Formula (I) - Placebo) [8]: 0.2614
- Accelerometer-Based Upper Limb Score, LS Mean Percentage Change Difference (Formula (I) - Placebo) [8]: −35.5%
- Accelerometer-Based Upper Limb Score, Change from Baseline, Mean (SD) [9]: 2.02 (3.694)
- Accelerometer-Based Upper Limb Score, Change from Baseline, Median [9]: 0.35
- Accelerometer-Based Upper Limb Score, Change from Randomization, LS Mean (SE) [9]: 3.223 (1.4066)
- Accelerometer-Based Upper Limb Score, Change from Randomization, Mean (SD) [9]: 3.02 (2.533)
- Accelerometer-Based Upper Limb Score, Change from Randomization, Median [9]: 2.00
- Accelerometer-Based Upper Limb Score, LS Mean Percentage Change in Tremor Amplitude from Randomization [9]: 46.1%
- Accelerometer-Based Upper Limb Score, Mean (SD) [9]: 13.17 (0.862)
- Accelerometer-Based Upper Limb Score, Median [9]: 13.00
- Accelerometer-Based Upper Limb Score, Percentage Change from Baseline in Tremor Amplitude, Mean (SD) [9]: 22.11 (42.165) %
- Accelerometer-Based Upper Limb Score, Percentage Change from Baseline in Tremor Amplitude, Median [9]: 6.50%
- Accelerometer-Based Upper Limb Score, Percentage Change from Randomization in Tremor Amplitude, Mean (SD) [9]: 39.81 (24.948) %
- Accelerometer-Based Upper Limb Score, Percentage Change from Randomization in Tremor Amplitude, Median [9]: 31.87%
- Accelerometer-Based Upper Limb Score, Change from Randomization, LS Mean (SE) for Difference (Formula (I) - Placebo) [10]: 0.341 (1.8367)
- Accelerometer-Based Upper Limb Score, Change from Randomization, p-value for LS Mean Difference (Formula (I) - Placebo) [10]: 0.8597
- Accelerometer-Based Upper Limb Score, LS Mean Percentage Change Difference (Formula (I) - Placebo) [10]: 3.6%
- Accelerometer-Based Upper Limb Score, Change from Baseline, Median [11]: 0.20
- Accelerometer-Based Upper Limb Score, observed, Median [11]: 9.40
- Accelerometer-based Upper Limb Score, Change from Baseline, LS Mean [11]: 0.417
- Accelerometer-based Upper Limb Score, Change from Baseline, Mean [11]: 0.42
- Accelerometer-based Upper Limb Score, observed, Mean [11]: 10.93
- LS Mean Percentage Change in Tremor Amplitude [11]: 7.7%
- Percentage Change from Baseline in Tremor Amplitude, Mean [11]: 7.49%
- Percentage Change from Baseline in Tremor Amplitude, Median [11]: 3.76%
- Accelerometer-Based Upper Limb Score, Change from Baseline, Median (Part A (N = 7), Day 7): −0.40
- Accelerometer-Based Upper Limb Score, observed, Median (Part A (N = 7), Day 7): 10.38
- Accelerometer-based Upper Limb Score, Change from Baseline, LS Mean (Part A (N = 7), Day 7): −1.100
- Accelerometer-based Upper Limb Score, Change from Baseline, Mean (Part A (N = 7), Day 7): −1.10
- Accelerometer-based Upper Limb Score, observed, Mean (Part A (N = 7), Day 7): 9.31
- LS Mean Percentage Change in Tremor Amplitude (Part A (N = 7), Day 7): −19.0%
- Percentage Change from Baseline in Tremor Amplitude, Mean (Part A (N = 7), Day 7): −15.89%
- Percentage Change from Baseline in Tremor Amplitude, Median (Part A (N = 7), Day 7): −7.39%
- Accelerometer-Based Upper Limb Score, Change from Baseline, Median (Part A (N = 7), Day 14): −1.15
- Accelerometer-Based Upper Limb Score, observed, Median (Part A (N = 7), Day 14): 8.30
- Accelerometer-based Upper Limb Score, Change from Baseline, LS Mean (Part A (N = 7), Day 14): −1.300
- Accelerometer-based Upper Limb Score, Change from Baseline, Mean (Part A (N = 7), Day 14): −1.30
- Accelerometer-based Upper Limb Score, observed, Mean (Part A (N = 7), Day 14): 8.23
- LS Mean Percentage Change in Tremor Amplitude (Part A (N = 7), Day 14): −22.1%
- Percentage Change from Baseline in Tremor Amplitude, Mean (Part A (N = 7), Day 14): −20.27%
- Percentage Change from Baseline in Tremor Amplitude, Median (Part A (N = 7), Day 14): −19.80%
- Accelerometer-Based Upper Limb Score, Change from Baseline, Median (Part A (N = 7), Day 21): −1.05
- Accelerometer-Based Upper Limb Score, observed, Median (Part A (N = 7), Day 21): 10.98
- Accelerometer-based Upper Limb Score, Change from Baseline, LS Mean (Part A (N = 7), Day 21): −0.117
- Accelerometer-based Upper Limb Score, Change from Baseline, Mean (Part A (N = 7), Day 21): −0.12
- Accelerometer-based Upper Limb Score, observed, Mean (Part A (N = 7), Day 21): 10.11
- LS Mean Percentage Change in Tremor Amplitude (Part A (N = 7), Day 21): −2.2%
- Percentage Change from Baseline in Tremor Amplitude, Mean (Part A (N = 7), Day 21): −2.75%
- Percentage Change from Baseline in Tremor Amplitude, Median (Part A (N = 7), Day 21): −18.25%
- Accelerometer-Based Upper Limb Score, Change from Baseline, LS Mean (SE) [12]: −0.633 (0.3456)
- Accelerometer-Based Upper Limb Score, Change from Baseline, Mean (SD) [12]: −0.56 (1.700)
- Accelerometer-Based Upper Limb Score, Change from Baseline, Median [12]: −0.60
- Accelerometer-Based Upper Limb Score, observed, Mean (SD) [12]: 9.67 (3.109)
- Accelerometer-Based Upper Limb Score, observed, Median [12]: 10.50
- LS Mean Percentage Change in Tremor Amplitude [12]: −11.4%
- Percentage Change from Baseline in Tremor Amplitude, Mean (SD) [12]: −8.42 (25.587) %
- Percentage Change from Baseline in Tremor Amplitude, Median [12]: −10.87%
- Accelerometer-Based Upper Limb Score, Change from Baseline, LS Mean (SE) [13]: −1.235 (0.3722)
- Accelerometer-Based Upper Limb Score, Change from Baseline, Mean (SD) [13]: −1.15 (2.151)
- Accelerometer-Based Upper Limb Score, Change from Baseline, Median [13]: −1.20
- Accelerometer-Based Upper Limb Score, observed, Mean (SD) [13]: 8.91 (3.335)
- Accelerometer-Based Upper Limb Score, observed, Median [13]: 8.85
- LS Mean Percentage Change in Tremor Amplitude [13]: −21.1%
- Percentage Change from Baseline in Tremor Amplitude, Mean (SD) [13]: −15.44 (29.596) %
- Percentage Change from Baseline in Tremor Amplitude, Median [13]: −19.95%
- Accelerometer-Based Upper Limb Score, Change from Baseline, LS Mean (SE) [14]: −1.835 (0.4715)
- Accelerometer-Based Upper Limb Score, Change from Baseline, Mean (SD) [14]: −1.57 (2.142)
- Accelerometer-Based Upper Limb Score, Change from Baseline, Median [14]: −1.00
- Accelerometer-Based Upper Limb Score, observed, Mean (SD) [14]: 9.09 (2.989)
- Accelerometer-Based Upper Limb Score, observed, Median [14]: 8.95
- LS Mean Percentage Change in Tremor Amplitude [14]: −29.7%
- Percentage Change from Baseline in Tremor Amplitude, Mean (SD) [14]: −21.20 (27.676) %

Reference: patent US20250295646A1, “METHODS OF USE OF T-TYPE CALCIUM CHANNEL MODULATORS” (Praxis Precision Medicines, Inc., priority 2022, published 2025)
